Tests used:
[1] = target: T1, Rat Kidney Medullary V2 Receptors (Rattus norvegicus, UniProt Q00788); test: Binding Assay to Rat Kidney Medullary V2 Receptors; conditions: rat kidney medulla membranes; read-out: V2 IC50
T1 construct: Medullary tissues from rat kidneys are dissected out; from tissue; host or cells: rat kidney medulla membranes
Procedure, shortened: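 Membranes were prepared from rat kidney medulla and stored in 50.0 mM Tris-HCl pH 7.4 with 0.2% BSA and 0.1 mM PMSF. Radioligand competition ran 120 min at bench temperature, with 1.0 μM unlabeled ligand defining nonspecific binding. Compounds were added in 50% DMSO; filtration, tritium scintillation counting, IC50 from competition analysis.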

Rat Hepatic V1 Receptors = target: T2, Rat Hepatic V1 Receptors (Rattus norvegicus, UniProt P30560); test: Binding Assay to Rat Hepatic V1 Receptors; conditions: rat liver membranes; read-out: V1 IC50
T2 construct: Rat liver plasma membranes expressing the vasopressin V1 receptor subtypes; from tissue; host or cells: rat liver plasma membranes

Vasopressin V1 = Vasopressin V1 Antagonist Activity in Conscious Rats (vasopressin vasopressor response); assay type: in vivo, rat; parameters: Average Change: unit not given here; conditions: for % Inhibition / Average Change: SHR
Procedure, shortened: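 Conscious rats are restrained supine, and under local 2% procaine a PE 10/20 cannula is passed through the ventral caudal tail artery into the lower abdominal aorta. The caudal vein is cannulated for intravenous dosing. Blood pressure is recorded with a Statham P23Db transducer, and vasopressin injections are repeated after compound dosing. Percent antagonism is calculated against the pre-drug vasopressor response taken as 100%.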

Vasopressin V2 = Vasopressin V2 Antagonist Activity in Conscious Hydrated Rats; assay type: in vivo, rat; conditions: AVP 0.4 μg/kg i.p.
Description: Vasopressin V2 Antagonist Activity in Conscious Hydrated Rats
Conscious hydrated rats are treated with compounds under study from 0.1 to 100 mg/kg orally or vehicle. Two to four rats are used for each compound. One hour later, arginine vasopressin (AVP, antidiuretic hormore, ADH) dissolved in peanut oil is administered at 0.4 μg/kg intraperitoneally. Two rats in each test would not receive arginine vasopressin but only the vehicle (peanut oil) to serve as water-loading control. Twenty minutes later each rat is given 30 mL/kg of deionized water orally by gavage and is placed individually in a metabolic cage equipped with a funnel and a graduated glass cylinder to collect urine for four hours. Urine volume is measured and osmolality analyzed by use of a Fiske One-Ten osmometer (Fiske Assoc., Norwood, Mass., USA). Urinary sodium, potassium, and chloride are analyzed by use of ion-specific electrodes in a Beckman E3 (Electrolyte 3) Analyzer.

[2] = 10 mg/kg i.v., VAS 0.01 i.u./kg, 30 min
[3] = 10 mg/kg i.v., VAS 0.01 i.u./kg, 60 min
[4] = 10 mg/kg i.v., VAS 0.01 i.u./kg, 90 min
[5] = 10 mg/kg i.v., VAS 0.01 i.u./kg, 120 min
[6] = 10 mg/kg i.v., VAS 0.01 i.u./kg, 180 min
[7] = 10 mg/kg i.v., VAS 0.01 i.u./kg, 240 min
[8] = 10 mg/kg i.v., VAS 0.01 i.u./kg, 300 min
[9] = 10 mg/kg i.v., VAS 0.02 i.u./kg, 30 min
[10] = 10 mg/kg i.v., VAS 0.02 i.u./kg, 60 min
[11] = 10 mg/kg i.v., VAS 0.02 i.u./kg, 90 min
[12] = 10 mg/kg i.v., VAS 0.02 i.u./kg, 120 min
[13] = 10 mg/kg i.v., VAS 0.02 i.u./kg, 180 min
[14] = 10 mg/kg i.v., VAS 0.02 i.u./kg, 240 min
[15] = 10 mg/kg i.v., VAS 0.02 i.u./kg, 300 min

T1 sequence (Q00788 whole entry): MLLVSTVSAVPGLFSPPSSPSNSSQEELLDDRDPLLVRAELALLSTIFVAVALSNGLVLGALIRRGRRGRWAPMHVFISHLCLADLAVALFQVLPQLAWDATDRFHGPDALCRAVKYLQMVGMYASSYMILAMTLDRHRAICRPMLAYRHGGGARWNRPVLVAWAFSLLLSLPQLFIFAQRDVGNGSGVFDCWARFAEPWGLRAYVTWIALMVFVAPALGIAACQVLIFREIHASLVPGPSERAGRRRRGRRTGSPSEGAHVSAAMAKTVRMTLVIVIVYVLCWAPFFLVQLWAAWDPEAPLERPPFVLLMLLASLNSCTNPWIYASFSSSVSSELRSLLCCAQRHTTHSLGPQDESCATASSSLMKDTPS
T2 sequence (P30560 whole entry): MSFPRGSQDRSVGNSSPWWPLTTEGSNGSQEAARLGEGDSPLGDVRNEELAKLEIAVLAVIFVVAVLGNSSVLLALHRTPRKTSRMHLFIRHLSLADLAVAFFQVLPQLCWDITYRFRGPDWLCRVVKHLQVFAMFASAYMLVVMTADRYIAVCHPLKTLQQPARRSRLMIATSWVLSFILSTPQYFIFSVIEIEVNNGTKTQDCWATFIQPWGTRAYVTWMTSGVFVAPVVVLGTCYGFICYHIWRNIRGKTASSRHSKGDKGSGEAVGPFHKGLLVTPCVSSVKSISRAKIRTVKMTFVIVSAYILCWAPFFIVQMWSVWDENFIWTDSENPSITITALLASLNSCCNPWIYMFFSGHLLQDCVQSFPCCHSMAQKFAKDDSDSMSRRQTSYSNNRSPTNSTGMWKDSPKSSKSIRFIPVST

Compound | IC50 [1] | IC50 (Rat Hepatic V1 Receptors) | % Inhibition (Vasopressin V1; [2]) | Average Change (Vasopressin V1; [2]) | % Inhibition (Vasopressin V1; [3]) | Average Change (Vasopressin V1; [3]) | % Inhibition (Vasopressin V1; [4]) | Average Change (Vasopressin V1; [4]) | % Inhibition (Vasopressin V1; [5]) | Average Change (Vasopressin V1; [5]) | % Inhibition (Vasopressin V1; [6]) | Average Change (Vasopressin V1; [6]) | % Inhibition (Vasopressin V1; [7]) | Average Change (Vasopressin V1; [7]) | % Inhibition (Vasopressin V1; [8]) | Average Change (Vasopressin V1; [8]) | % Inhibition (Vasopressin V1; [9]) | Average Change (Vasopressin V1; [9]) | Osmolality (Vasopressin V2; 10 mg/kg orally) | Urine Volume (Vasopressin V2; 10 mg/kg orally) | also measured
Cc1ccccc1C(=O)Nc1ccc(C(=O)N2Cc3cccn3-c3ccccc32)cc1 [Example 14, 2-Methyl-N-[4-(pyrrolo[1,2-a]quinoxalin-5 (4H)-ylcarbonyl)phenyl]benzamide] | 66 nM | 170 nM | 25% | 26 | 23% | 26.5 | 39% | 21 | 23% | 26.5 | 6% | 32.5 | 17% | 28.5 | 26% | 25.5 | 20% | 38 | 836 mOsm/kg | 5.2 ml/4 hrs | % Inhibition (Vasopressin V1; [10]): 34%; Average Change (Vasopressin V1; [10]): 31.5; % Inhibition (Vasopressin V1; [11]): 16%; Average Change (Vasopressin V1; [11]): 40; % Inhibition (Vasopressin V1; [12]): 17%; Average Change (Vasopressin V1; [12]): 39.5; % Inhibition (Vasopressin V1; [13]): -9%; Average Change (Vasopressin V1; [13]): 52; % Inhibition (Vasopressin V1; [14]): 25%; Average Change (Vasopressin V1; [14]): 35.5; % Inhibition (Vasopressin V1; [15]): 16%; Average Change (Vasopressin V1; [15]): 40; Osmolality (Vasopressin V2; 3 mg/kg orally): 1000 mOsm/kg; Urine Volume (Vasopressin V2; 3 mg/kg orally): 4.5 ml/4 hrs
Cc1ccccc1NC(=O)c1ccc(C(=O)N2Cc3cccn3Cc3ccccc32)cc1 [Example 484, N-(2-Methylphenyl)-4-(5H-pyrrolo[2,1-c][1,4]-benzodiazepin-10(11H)-ylcarbonyl)benzamide] | 25 nM | 97 nM |  |  |  |  |  |  |  |  |  |  |  |  |  |  |  |  | 785 mOsm/kg | 8 ml/4 hrs | Max. % Inhibition (Vasopressin V1; 10 mg/kg i.v.): 79%; Time (of max. % inhibition) (Vasopressin V1; 10 mg/kg i.v.): 300 min; Max. % Inhibition (Vasopressin V1; 30 mg/kg p.o.): 22%; Time (of max. % inhibition) (Vasopressin V1; 30 mg/kg p.o.): 180 min
Cc1cc(C(=O)N2Cc3cccn3Cc3ccccc32)ccc1NC(=O)c1ccc(Cl)cc1Cl [Example 99, N-[4-(5H-pyrrolo[2,1-c][1,4]-benzodiazepin-10(11H)-yl-carbonyl)-2-methylphenyl]-2,4-dichlorobenzamide] | 10 nM | 27 nM | 74% | 9.5 | 29% | 25.5 | 47% | 19 | 76% | 8.5 | 68% | 11.5 | 50% | 18 | 44% | 20 | 64% | 13 |  |  | Max. % Inhibition (Vasopressin V1; 10 mg/kg i.v.): 76%; Time (of max. % inhibition) (Vasopressin V1; 10 mg/kg i.v.): 120 min; % Inhibition (Vasopressin V1; [10]): 72%; Average Change (Vasopressin V1; [10]): 10; % Inhibition (Vasopressin V1; [11]): 26%; Average Change (Vasopressin V1; [11]): 26.5; % Inhibition (Vasopressin V1; [12]): 53%; Average Change (Vasopressin V1; [12]): 17; % Inhibition (Vasopressin V1; [13]): 44%; Average Change (Vasopressin V1; [13]): 20; % Inhibition (Vasopressin V1; [14]): 40%; Average Change (Vasopressin V1; [14]): 21.5; % Inhibition (Vasopressin V1; [15]): 38%; Average Change (Vasopressin V1; [15]): 22.5; Osmolality (Vasopressin V2; 30 mg/kg orally): 334 mOsm/kg; Urine Volume (Vasopressin V2; 30 mg/kg orally): 15.2 ml/4 hrs
COc1ccccc1C(=O)Nc1ccc(C(=O)N2Cc3cccn3Cc3ccccc32)cc1 [Example 2, N-[4-(5H-Pyrrolo[2,1-c][1,4]benzodiazepin-10(11H)-ylcarbonyl)phenyl]-2-methoxybenzamide] | 14 nM | 31 nM | 79% | 6.5 | 74% | 8 | 66% | 10.5 | 69% | 9.5 | 55% | 14 | 47% | 16.5 | 44% | 17.5 | 84% | 8 | 1015 mOsm/kg | 9.3 ml/4 hrs | % Inhibition (Vasopressin V1; [10]): 74%; Average Change (Vasopressin V1; [10]): 13; % Inhibition (Vasopressin V1; [11]): 70%; Average Change (Vasopressin V1; [11]): 15; % Inhibition (Vasopressin V1; [12]): 70%; Average Change (Vasopressin V1; [12]): 15; % Inhibition (Vasopressin V1; [13]): 56%; Average Change (Vasopressin V1; [13]): 22; % Inhibition (Vasopressin V1; [14]): 50%; Average Change (Vasopressin V1; [14]): 25; % Inhibition (Vasopressin V1; [15]): 37%; Average Change (Vasopressin V1; [15]): 31.5; Max. % Inhibition (Vasopressin V1; 30 mg/kg i.v.): 74%; Time (of max. % inhibition) (Vasopressin V1; 30 mg/kg i.v.): 120 min

Further lines, with some results ahead:

IC50 [1] | IC50 (Rat Hepatic V1 Receptors) | Compound | % Inhibition (Vasopressin V1; [2]) | Average Change (Vasopressin V1; [2]) | % Inhibition (Vasopressin V1; [3]) | Average Change (Vasopressin V1; [3]) | % Inhibition (Vasopressin V1; [4]) | Average Change (Vasopressin V1; [4]) | % Inhibition (Vasopressin V1; [5]) | Average Change (Vasopressin V1; [5]) | % Inhibition (Vasopressin V1; [6]) | Average Change (Vasopressin V1; [6]) | % Inhibition (Vasopressin V1; [7]) | Average Change (Vasopressin V1; [7]) | % Inhibition (Vasopressin V1; [8]) | Average Change (Vasopressin V1; [8]) | % Inhibition (Vasopressin V1; [9]) | Average Change (Vasopressin V1; [9]) | Osmolality (Vasopressin V2; 10 mg/kg orally) | Urine Volume (Vasopressin V2; 10 mg/kg orally) | also measured
53 nM | 87 nM | O=C(CC1CCCCC1)Nc1ccc(C(=O)N2Cc3cccn3Cc3ccccc32)cc1 [Example 356, N-[4-(5H-Pyrrolo[2,1-c][1,4]benzodiazepin-10(11)ylcarbonyl)phenyl]-cyclohexylacetamide] |  |  |  |  |  |  |  |  |  |  |  |  |  |  |  |  | 1023 mOsm/kg | 5.8 ml/4 hrs | 
35 nM | 56 nM | O=C(Nc1ccc(C(=O)N2Cc3cccn3Cc3ccccc32)cc1)c1ccccc1F [Example 8, N-[4-(5H-pyrrolo[2,1-c][1,4]benzodiazepin10(11H)-ylcarbonyl)phenyl]-2-fluorobenzamide] | 61% | 14.5 | 61% | 14.5 | 73% | 10 | 69% | 11.5 | 62% | 14 | 59% | 15 | 51% | 18 | 54% | 23.5 | 1211 mOsm/kg | 3.4 ml/4 hrs | % Inhibition (Vasopressin V1; [10]): 58%; Average Change (Vasopressin V1; [10]): 21.5; % Inhibition (Vasopressin V1; [11]): 66%; Average Change (Vasopressin V1; [11]): 17.5; % Inhibition (Vasopressin V1; [12]): 70%; Average Change (Vasopressin V1; [12]): 15.5; % Inhibition (Vasopressin V1; [13]): 46%; Average Change (Vasopressin V1; [13]): 28; % Inhibition (Vasopressin V1; [14]): 44%; Average Change (Vasopressin V1; [14]): 29; % Inhibition (Vasopressin V1; [15]): 46%; Average Change (Vasopressin V1; [15]): 28; Osmolality (Vasopressin V2; 30 mg/kg orally): 1010 mOsm/kg; Urine Volume (Vasopressin V2; 30 mg/kg orally): 9.1 ml/4 hrs
7 nM | 12 nM | O=C(Nc1ccc(C(=O)N2Cc3cccn3Cc3ccccc32)cc1)C1CC=CCC1 (centres unmarked) [Example 354, N-[4-(5H-Pyrrolo[2,1-c][1,4]benzodiazepin-10(11)-ylcarbonyl)phenyl]-3-cyclohexenecarboxamide] |  |  |  |  |  |  |  |  |  |  |  |  |  |  |  |  | 1010 mOsm/kg | 8.8 ml/4 hrs | 

— patent US5624923A, “Tricyclic diazepine vasopressin antagonists and oxytocin antagonists” (priority 1995, dated 1997)
